Assay results reported in patent US11478466B2, “Small molecule promoting osteoblast differentiation” (Cornell University, priority 2019, dated 2022).
Like-named read-outs stand apart in the source and are kept apart here.

Experiments:
[1] = test system: alkaline phosphatase (ALP); assay: Flow cytometric analysis of ALP-positive C2C12 cell population; assay type: cell-based, mouse; details: C2C12, day 2; baseline approximately 4% in DMSO-treated cells
Experimental: C2C12 cells were treated for 2 days with 10 μM DIPQUO or structural analogs, 1 ng/ml rhBMP4, or with inhibitors as noted in figure legends, and then fixed briefly in 70% acetone/10% formaldehyde/20% citrate. Staining was achieved using the leukocyte alkaline phosphatase kit (Sigma 86R-1KT) according to the manufacturer's instructions. Expression of ALP was confirmed and quantified by flow cytometric analysis, using an Accuri C6 flow cytometer. Briefly, control- or DIPQUO-treated C2C12 cells were detached and harvested on day 2 using PBS-based enzyme-free cell detachment solution (ThermoFisher). 2×10^5 cells were incubated on ice for 30 minutes with 10 μl APC-conjugated ALPL antibody (R&D Systems), and washed in ice-cold PBS before analysis. Live cells were gated and analyzed in CFlow Plus software and then data was converted to FlowJo to achieve publication-level resolution. […] After an additional 3 days, cells were either fixed and stained for ALP expression or analyzed for ALP activity using the AttoPhos Substrate kit. Hemagglutinin and FLAG epitope-tagged MKK3 (pMT2-HA-MKK3) and MKK6 (pcDNA3-FLAG-MKK6) constructs were obtained from Addgene and transfected into C2C12 cells using Lipofectamine LTX with Plus Reagent (ThermoFisher) according to manufacturer's instructions and cell extracts analyzed for protein expression and activity as described below.

MKK3/6 = assay: Western blotting of MKK3/6 in BRITER cells; assay type: cell-based, mouse
Experimental: Cells were maintained in DMEM with 10% FBS. For analysis of DIPQUO effects independent of BMP signaling, BMP-2 and BMP-4 knockdown was achieved by treating cells overnight with 1 μM 4-hydroxytamoxifen (4-OHT), followed by continued maintenance in 1 μM 4-OHT. Cells were serum-starved for at least 6 hours before treatment with recombinant BMP protein or DIPQUO as noted in figure legends.
Whole cell extracts were collected from C2C12 or BRITER cells in complete lysis buffer (20 mM Tris, 150 mM NaCl, 50 mM NaF, 1% NP40 substitute, HALT protease inhibitor cocktail (ThermoScientific). Proteins were resolved by electrophoresis on pre-cast 10% NuPage Bis-Tris gels (Invitrogen) and transferred to PVDF membranes (Bio-Rad). Membranes were blocked in 5% BSA-TBS-0.5% Tween-20 for 15 minutes, then incubated at 4° overnight with primary antibodies. Antibodies used were: rabbit anti-phospho-p38 MAPK (cat. no. 9211), anti-p38 MAPK XP (8690), anti-phospho-SMAD1/5 (9516), anti-SMAD1 XP (6944), anti-phospho-SMAD2/3 (8828), anti-SMAD2/3 XP (8685), anti-phospho-JNK (4668), anti-SAPK/JNK (9252), anti-phospho-Akt XP (4060), pan anti-Akt (4691), anti-phospho ERK p42/p44 (4377), anti-ERK p42/p44 (9102), anti-phospho-MKK3/6 (12280), anti-MKK3 (8535), anti-phospho-TAK1 (4531), anti-TAK1 (5206), anti-HA (3274), and anti-FLAG (14793); all from Cell Signaling); and mouse anti-p38α (cat. no. […]

p38-β = assay: Isoform-specific immunoprecipitation, p38-β activity in C2C12 cells; assay type: cell-based, mouse; details: C2C12, 10 μM DIPQUO
From the text: There are four separate p38 isoforms: α, β, γ, and δ. The respective roles of the α and β isoforms in bone differentiation have been dissected to the extent that p38-β is known to be involved specifically in skeletogenesis (Greenblatt et al., 2010), while p38-α has roles that are both wide-ranging and highly specific, for instance in dentition (Greenblatt et al., 2015). Accordingly, we used small interfering RNA-mediated knockdown to probe the specificity of DIPQUO to block the activity of one or the other isoform (FIG. 6E). […] To confirm the biological significance of this observation, the α and β isoforms were immunoprecipitated from C2C12 cells and analyzed for relative activity levels.

C2C12 cells = assay: C2C12 culture morphology and survival under treatment; assay type: cell-based, mouse; parameters: effect of continued treatment on C2C12 culture: dose or concentration left out as unconfirmed
[2] = test system: alkaline phosphatase (ALP); assay: cells; details: Mus musculus; for activation at 10 µM: C2C12, 96 h

Structure (SMILES): Cc1cc(C)c2[nH]c(=O)c(-c3[nH]cnc3-c3ccccc3)cc2c1 [RU-0226606, 6,8-dimethyl-3-(4-phenyl-1H-imidazol-5-yl)quinolin-2(1H)-one]
- ALP-expressing fraction of the cell culture (flow cytometry) [1]: > 30%
- phosphorylation of MKK3/6 (MKK3/6): stimulated rapid phosphorylation of MKK3/6
- p38-β isoform activity after immunoprecipitation (p38-β): significantly activated
- cellular morphology (C2C12 cells; C2C12): rapid rearrangement of cellular architecture from fibroblast-like to a cuboidal phenotype
- effect of continued treatment on C2C12 culture (C2C12 cells; continued treatment, partially rescued by IGF-1): attrition of the C2C12 culture
- EC50 ([2]; C2C12): 9.3 µM
- activation at 10 µM [2]: 100%
- activation at 10 µM ([2]; read-out: NPA Score Threshold ≥ 5.0 (normalized percent activation)): 8.78%
- EC50 ([2]; C2C12, read-out: Measured EC50): 8.6 µM
- EC50 ([2]; C2C12, read-out: half maximal effective concentration in C2C12 cells): 6.27 µM
